In patent US8772243B2, “Methods for predicting the response to anti-cancer treatment with an agonist of TLR7 or an agonist of TLR8” (Inserm (Institut National de la Sante et de la Recherche …, priority 2008, dated 2014):

What was measured:
A549 and SK-MES cells = assay: Transcriptomic analysis of 182 genes (Taq Man Low Density Array); assay type: cell-based, human; details: 6 h stimulation; versus unstimulated cells
Method: FIG. 6 TLR7 and 8 induce regulation of gene transcription. A549 or SK-MES cells were cultured for 6 h in the presence of loxoribine, Poly U, or Gardiquimod. Total RNA was extracted and analyzed for the expression of 182 genes using Taq Man Low Density Array technology. All genes with a value greater than 35 (CT) were excluded from the analysis. The ΔCT values for the expression of all genes were calculated by subtraction of the CT value of the 18S housekeeping gene. The ΔΔCT values were obtained by subtraction of the ΔCT values for unstimulated cells from those obtained for TLR7- or 8-stimulated cells. The fold increase (arbitrary unit) was obtained by 2^−ΔΔCT. Values were then clustered using the Genesis Software.
Total RNA was extracted from A549 or SK-MES cells stimulated with loxoribine, Poly U, or Gardiquimod for 6 h or from purified human lung cancer cells using the RNeasy isolation-kit RNA (Qiagen, Courtaboeuf, France). The integrity and the quantity of the RNA were evaluated with a bioanalyzer-2100 (Agilent Technologies). All samples were assessed for gene expression analysis using the Taq Man Low-Density Array angiogenesis and immune panel (Applied Biosystem). The RT-PCR experiments were carried-out according to the manufacturer's instructions (Applied-Biosystems). Quantitative real-time TaqMan-PCR was performed using Low-Density-Arrays and the 7900 robotic real-time PCR-system (Applied-Biosystems). The 18S primers and probes were used as internal controls. Data were analyzed using the SDS Software v2.2 (Applied-Biosystems). The ΔCT values were calculated for each gene by subtraction of the CT value of the 18S housekeeping gene from the CT of the gene of interest. The ΔΔCT values were obtained by subtraction of the ΔCT values for unstimulated cells from the […]. The fold increase (arbitrary unit) was obtained by 2^−ΔΔCT.

[1] = tested on: IκBα (NF-κB activation) in A549 cells; assay: Western blot of IκBα phosphorylation and degradation (NF-κB activation) in A549 cells; assay type: cell-based, human; details: loxoribine 10 μg/ml or Poly U 10 μg/ml
Method: FIG. 3 TLR7 and TLR8 lead to IκBα phosphorylation, but not degradation. A549 cells were untreated or treated with TNF-α (10 ng/ml) (A, B), loxoribine (10 μg/ml) (C, D), or Poly U (10 μg/ml) (E, F) for the indicated periods of time. The cell lysates were analyzed by immunoblot with anti-phospho-specific IκBα, anti-IκBα and anti-actin antibodies (A, C, E). Quantification of the bands was realized using Image J software (B, D, F). Histograms represent the intensity of each band observed in the blots at the indicated time point and are expressed in arbitrary units normalized to actin intensity (relative intensity) both for phospho-IκBα and IκBα. Results are representative of three independent experiments.
A549 cells (1.10^6 cells) were starved for 4 hours in medium containing 2% FCS, and then stimulated with loxoribine, PolyU, or TNFα (10 ng/ml) for different periods of time as indicated. Cells were lysed in 50 mM Tris-HCl, pH 7.5, 150 mM NaCl, 2 mM EDTA, 0.5% triton X100, 2 mM Na3VO4, 10 mM NaF, and 10 mM sodium pyrophosphate supplemented with a complete protease inhibitor cocktail (Boehringer, Paris, France). Protein contents in the cell lysates were quantified using the quick start Bradford protein assay kit (Biorad, Marnes-La-Coquette, France) to ensure that all samples contained similar amounts of protein. Proteins (30 μg) were resolved in 10% Tris-glycine polyacrylamide gels (Invitrogen, Cergy Pontoise, France) and transferred to PVDF immobilon-P membranes (Millipore, Molsheim, France). Blots were probed with monoclonal antibody against phospho-IκBα (Cell Signaling Technology, Danvers, USA), total IκBα, and actin (Santa Cruz, Le Perray en Yvelines, France).
In order to determine if the TLR7 and 8 expressed by lung tumor cell lines were able to induce intracellular signaling pathways, we studied NF-κB activation in response to stimulation with TNFα, loxoribine (homodimeric TLR7 ligand), or Poly U (homodimeric TLR8 ligand). […] In contrast TLR7 or 8 stimulation led to atypical NF-κB activation. […] Furthermore, we also observed that the kinetics of IκBα phosphorylation were dependent on the stimulus. On the one hand, TNFα stimulation induced two waves of IκBα phosphorylation; the first one after ten minutes was associated with IκBα degradation, and the second one after sixty minutes was not associated with IκBα degradation. On the other hand, we observed that TLR stimulation induced only a phosphorylation of IκBα, with a maximum phosphorylation obtained after thirty minutes without degradation of IκBα.

[2] = tested on: 1549, H1355 and SK-MES cells; assay: Chemoresistance by colony formation assay; assay type: cell-based, human; details: stimulated with Loxoribine 100 μM and/or polyU 10 μg/ml on days 0, 3, 6, 9
Method: Alternatively, chemoresistance was assessed by the colony formation assay. In this assay, 1549, H1355 and SK-MES cells were seeded in 6-well plates (500 cells per well) and incubated for 15 days at 37° under 5% CO2. The cells were left unstimulated or stimulated 100 μM Loxoribine or with 10 μg/ml single-stranded polyU RNA (InvivoGen) on days 0, 3, 6 and 9. On day 12, different anti-cancer agents were added at the respective LD50 (cisplatin and carboplatin 100 μM, navelbine 50 μM, doxorubicine 2 nM). On day 15, the wells ware washed with PBS, and stained with 6% (vol/vol) glutaraldehyde, 0.5% (wt/vol) crystal violet in water for 30 minutes. The cells were washed and the colonies of more than 50 cells counted. Cell survival was calculated as follows: number of colonies after chemotherapy/number of cells seeded on day 0×plating efficiency, where the plating efficiency is number of colonies/number of cells seeded.

A549 cells = assay: A549 xenograft in NOD/SCID mice; assay type: in vivo
Method: Mice were anesthetized by intra-peritoneal injection of a solution containing 3.2 mg of ketamine (Virbac) and 0.16 mg of xylasine (Rompum 2%, Bayer Healthcare) in 80 μl of PBS (Gibco). Five days prior to experimentation, A549 cells were pre-stimulated with 100 μM Loxoribine (Invivogen) or left unstimulated. For each condition 5×10^6 cells were diluted in 250 μl PBS and injected subcutaneously to 5 mice per group and were re-stimulated either with 50 μl PBS or with 100 nmol of Loxoribine diluted in 50 μl PBS. Stimulating injections into the tumor site were carried out on the day the cells were injected and then on days 3, 6 and 9. The mice then received either 120 μA PBS, or a chemotherapy of cisplatine (2 mg/kg/injection diluted in 120 μl PBS) on days 18, 20 and 22, both intra-peritoneal. The volume of the tumor was determined by measuring the length (Lg), the width (Wi) of the tumor and by calculating (Lg*(Wi*Wi)/2.

Poly U
genes down-regulated in both SK-MES and A549 cells (A549 and SK-MES cells): Prolactin (PRL), CD80, Fibronectin-1 (FN-1), A Disintegrin And Metalloproteinase with ThromboSpondin motif 1 (ADAMTS1), and Serpin Peptidase Inhibitor Clade C1 (SERPINC1) | genes up-regulated in A549 cells, but down-regulated in SK-MES cells (A549 and SK-MES cells): Angiopoietin like 3 (ANGPTL3), Serpin Peptidase Inhibitor Clade F1 (SERPINF1), and Angiopoietin 1 (ANGPT1) | genes up-regulated in SK-MES, but down-regulated in A549 cells (A549 and SK-MES cells): ANGPTL1, Platelet Factor 4 (PF4), and fms related tyrosine kinase 4 (FLT4) | genes up-regulated in both SK-MES and A549 cells (A549 and SK-MES cells): Bcl-2, CCR4, and Vasohibin-1 (VASH-1) | time at which IκBα was phosphorylated (maximum phosphorylation) [1]: thirty | resistance of colonies to combined anti-cancer agents [2]: more resistant to treatment with combined anti-cancer agents

C=CCn1c(=O)n([C@@H]2O[C@H](CO)[C@@H](O)[C@H]2O)c2nc(N)[nH]c(=O)c21 [loxoribine, 7-allyl-7,8-dihydro-8-oxo-guanosine]
genes down-regulated in both SK-MES and A549 cells (A549 and SK-MES cells): Prolactin (PRL), CD80, Fibronectin-1 (FN-1), A Disintegrin And Metalloproteinase with ThromboSpondin motif 1 (ADAMTS1), and Serpin Peptidase Inhibitor Clade C1 (SERPINC1) | genes up-regulated in A549 cells, but down-regulated in SK-MES cells (A549 and SK-MES cells): Angiopoietin like 3 (ANGPTL3), Serpin Peptidase Inhibitor Clade F1 (SERPINF1), and Angiopoietin 1 (ANGPT1) | genes up-regulated in SK-MES, but down-regulated in A549 cells (A549 and SK-MES cells): ANGPTL1, Platelet Factor 4 (PF4), and fms related tyrosine kinase 4 (FLT4) | genes up-regulated in both SK-MES and A549 cells (A549 and SK-MES cells): Bcl-2, CCR4, and Vasohibin-1 (VASH-1) | time at which IκBα was phosphorylated (maximum phosphorylation) [1]: thirty | tumor volume by week 14 (A549 cells; A549 cells pre-stimulated 100 μM, 100 nmol into tumor site days 0, 3, 6, 9, control group 4 cm^3): 8 cm^3 | metastases at autopsy (A549 cells; Loxoribine mice versus control mice): more ganglionic and pulmonary metastases than control mice | time of 50% mortality (A549 cells; Loxoribine mice, NS mice towards week 17): ~15 week | tumor volume seven weeks after injection of tumor cells (A549 cells; PBS-treated Loxoribine pre-stimulated group, PBS-treated NS group 1.9 cm^3): 5.3 cm^3 | tumor volume ratio, Loxoribine pre-stimulated versus NS group (A549 cells; PBS-treated, seven weeks after injection): 2.5 times | resistance of colonies to combined anti-cancer agents [2]: more resistant to treatment with combined anti-cancer agents
